Reference: US20140161748A1, “METHODS FOR TREATING SUN-EXPOSED SKIN” (UNIVERSITY OF MANITOBA, priority 2011, published 2014)

Experiments:
fibroblasts [1] = system: fibroblasts
Method: Cultures were examined after 24, 48, and 72 hours after treatment with 0, 0.01, 0.1, 10, or 100 μM of Quetiapine.

Fibroblast cells = conditions: fibroblasts, doses 0, 0.01, 0.1 and 1 μM
Method: Fibroblast cells were plated at different densities, and exposed to UVC for various time (0 s, 10 s, 60 s and 360 s), then incubated for another 24 h, 48 h or 72 h (PIT). MTT assay was used to evaluate cell viability.

fibroblasts [2] = system: fibroblasts; remark: listed apart in the source
Method: (§1) Fibroblasts were exposed to varying intensities of UVB, 0, 20, 40 and 60 mJ/cm^2 and were examined 24, 48 or 72 hours after. […] MMP-1 or matrix metalloproteinase-1 is an enzyme that is involved in the breakdown of the extracellular matrix in normal physiological processes such as embryonic development, reproduction and tissue modeling. It is also responsible for breaking down collagen. proCOL1A1 is one component that makes up a molecule of type 1 collagen, which is found in most connective tissue, including the skin.

proCOL1A1 = conditions: 0.1 μM; UVB 20 mJ/cm^2; compared to UVB control cells
Method: as §1

SKH-1 mice [3] = conditions: 10 mg/kg in drinking water; after 2 weeks of UV treatment; vs untreated mice
Method: (§2) Ten female SKH-1 mice were obtained from Jackson Laboratory. They were 9 weeks old at the start of the experiment.
(§3) Animals were ordered at 7 weeks of age and half were pretreated with quetiapine (10 mg/kg dissolved in drinking water) for two weeks prior to commencement of UV exposure. The other half were left untreated. Quetiapine was obtained in powder form (batch 1677) from Avlon Works, in Bristol, England, a production site for the pharmaceutical company AstraZeneca. All mice were exposed three times a week for a total of 10 weeks. Exposure intensity was 90 mJ/cm and exposure duration was 7.5 minutes. […] Excessive damage to the skin was not the goal of this study. The lamp used was manufactured by UVP (Upland, Calif., model UVLM-28).
(§4) Animals were free moving in a standard cage, with the light positioned about 30 cm above them. The intensity was measured and animals were not placed under the light until it had reached a stable value.

SKH-1 mice [4] = system: SKH-1 mice
Method: as §2, §3, §4
Skin samples were taken from the dorsal region (along the midline of the mouse close to the hindlimbs) of each mouse using a 6 mm dermal biopsy punch.
Three histological stains were used. Each stain was prepared by the histology technician in the Department of Human Anatomy and Cell Science at the University of Manitoba. Hematoxylin and Eosin (H&E) was used to examine skin structure. Van Gieson stain was used to examine collagen structure, and Verhoeff-Van Gieson stain was used to examine both collagen and elastin fibres.
Skin samples from all animals were embedded in paraffin wax blocks using standard techniques and sectioned at a thickness of 5 microns.
Staining with Hematoxylin and Eosin.
Staining with Van Gieson.
Staining with Verhoeff-Van Gieson.

fibroblasts [5] = conditions: UVB and Quetiapine for 48 hours
[6] = 10 mg/kg in drinking water, UV three times a week for 10 weeks

OCCOCCN1CCN(C2=Nc3ccccc3Sc3ccccc32)CC1 [Quetiapine, 2-(2-(4-dibenzo[b,f][1,4]thiazepine-11-yl-1-piperazinyl)ethoxy)ethanol]
cytotoxic effect on fibroblasts (fibroblasts [1]; fibroblast cultures examined 24, 48 and 72 hours after treatment): cytotoxic effect on fibroblasts at high concentrations
survival at 1, 10, and 100 μM (fibroblasts [1]; fibroblasts, 1, 10 and 100 μM): decreased further
concentration at which survival started becoming affected (fibroblasts [1]; fibroblasts, 24, 48, 72 hours, 0-100 μM): 0.1 µM
prevention of UVC induced cytotoxicity (Fibroblast cells): did not prevent UVC induced cytotoxicity regardless of the dose given
alleviation of UVB induced cell viability (MTT assay) (fibroblasts [2]): not to alleviate UVB induced cell viability
proCOL1A1 content in cell lysates (proCOL1A1): significantly increase
skin irritation (SKH-1 mice [3]): less irritation
skin redness (SKH-1 mice [3]): less redness
collagen appearance (Van Gieson) (SKH-1 mice [4]; [6]): darker staining and uniform, intact appearance of collagen bands
elastic fibre number and structure (Verhoeff-Van Gieson) (SKH-1 mice [4]; [6]): better preservation of elastic fibre number and structure
epidermis thickness (Hematoxylin and Eosin) (SKH-1 mice [4]; [6]): increased thickness in the untreated group compared to control and quetiapine treated animals
UV induced collagen breakdown and formation of abnormal elastic fibres (summary) (SKH-1 mice [4]; chronically UV exposed mice): appears to prevent UV induced collagen breakdown and the formation of abnormal elastic fibres
effect on cell death (PI-Hoechst 33342 staining) (fibroblasts [5]): no effect on cell death
